According to publication PMC9219090 (ACS Omega, 2022):
One block for each molecule: values may come before it.

What was measured:
MDA-MB 231 [1] = assay: Flow cytometric annexin V/PI analysis of apoptosis in MDA-MB 231; assay type: cell-based, human; conditions: MDA-MB 231, at 3 nM, 72 h, mean ± SEM
Caco-2 [2] = assay: Flow cytometric annexin V/PI analysis of apoptosis in Caco-2; assay type: cell-based, human; conditions: Caco-2, at 3 nM, 72 h, mean ± SEM
MDA-MB 231 [3] = assay: MTT antiproliferative evaluation on MDA-MB 231 cells; assay type: cell-based; conditions: Homo sapiens, MDA-MB-231, 72 h, read-out: IC50 MDA-MB 231
MMP-10 = MMP-10 (Homo sapiens, UniProt P09238); assay: MMP-10 Assay Kit; conditions: read-out: IC50 MMP-10
MMP-10, sequence (P09238 99-476): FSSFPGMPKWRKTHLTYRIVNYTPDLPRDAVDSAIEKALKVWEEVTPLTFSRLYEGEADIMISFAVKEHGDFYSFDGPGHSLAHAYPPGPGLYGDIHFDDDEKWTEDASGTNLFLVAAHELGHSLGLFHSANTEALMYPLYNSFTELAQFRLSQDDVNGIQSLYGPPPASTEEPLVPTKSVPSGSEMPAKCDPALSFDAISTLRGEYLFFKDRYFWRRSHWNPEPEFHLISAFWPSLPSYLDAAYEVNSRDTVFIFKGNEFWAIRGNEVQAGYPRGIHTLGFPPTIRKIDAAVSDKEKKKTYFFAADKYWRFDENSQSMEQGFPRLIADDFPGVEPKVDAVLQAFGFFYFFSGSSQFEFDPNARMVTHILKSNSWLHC

MMP-7 = target: T1, MMP-7 (Homo sapiens, UniProt P09237); assay: MMP-7 Inhibitor Screening Assay Kit; conditions: read-out: IC50 MMP-7
T1 sequence (P09237 95-267): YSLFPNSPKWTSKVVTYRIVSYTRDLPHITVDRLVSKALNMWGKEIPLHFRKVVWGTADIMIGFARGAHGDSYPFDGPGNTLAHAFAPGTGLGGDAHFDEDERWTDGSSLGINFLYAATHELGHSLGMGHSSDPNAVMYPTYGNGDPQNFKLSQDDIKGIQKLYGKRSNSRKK

MMP-9 = MMP-9 (Homo sapiens, UniProt P14780); assay: MMP-9 Colorimetric Assay Kit for Drug Discovery; assay type: biochemical; conditions: read-out: IC50 MMP-9
MMP-9, sequence (P14780 94-707): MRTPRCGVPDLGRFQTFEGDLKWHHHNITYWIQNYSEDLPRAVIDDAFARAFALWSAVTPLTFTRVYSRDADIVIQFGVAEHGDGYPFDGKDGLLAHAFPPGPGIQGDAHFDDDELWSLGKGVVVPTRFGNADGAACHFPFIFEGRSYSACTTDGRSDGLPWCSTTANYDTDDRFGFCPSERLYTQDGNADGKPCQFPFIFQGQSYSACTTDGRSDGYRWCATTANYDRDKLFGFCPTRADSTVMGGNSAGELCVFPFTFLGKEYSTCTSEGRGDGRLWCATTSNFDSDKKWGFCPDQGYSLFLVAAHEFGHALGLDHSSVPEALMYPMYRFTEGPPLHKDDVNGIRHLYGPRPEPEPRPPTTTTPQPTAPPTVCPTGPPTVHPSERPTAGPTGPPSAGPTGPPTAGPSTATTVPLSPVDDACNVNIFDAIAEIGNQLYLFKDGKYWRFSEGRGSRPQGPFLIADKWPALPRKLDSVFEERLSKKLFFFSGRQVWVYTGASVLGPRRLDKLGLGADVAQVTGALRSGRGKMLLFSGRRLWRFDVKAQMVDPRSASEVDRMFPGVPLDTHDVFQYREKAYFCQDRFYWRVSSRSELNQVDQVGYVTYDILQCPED

MMP-13 = MMP-13 (Homo sapiens, UniProt P45452); assay: MMP-13 Inhibitor Screening Assay Kit; conditions: read-out: IC50 MMP-13
MMP-2 = target: T2, MMP-2 (Homo sapiens, UniProt P08253); assay: MMP-2 Inhibitor Screening Assay Kit; assay type: biochemical; conditions: read-out: IC50 MMP-2
T2 sequence (P08253 110-660): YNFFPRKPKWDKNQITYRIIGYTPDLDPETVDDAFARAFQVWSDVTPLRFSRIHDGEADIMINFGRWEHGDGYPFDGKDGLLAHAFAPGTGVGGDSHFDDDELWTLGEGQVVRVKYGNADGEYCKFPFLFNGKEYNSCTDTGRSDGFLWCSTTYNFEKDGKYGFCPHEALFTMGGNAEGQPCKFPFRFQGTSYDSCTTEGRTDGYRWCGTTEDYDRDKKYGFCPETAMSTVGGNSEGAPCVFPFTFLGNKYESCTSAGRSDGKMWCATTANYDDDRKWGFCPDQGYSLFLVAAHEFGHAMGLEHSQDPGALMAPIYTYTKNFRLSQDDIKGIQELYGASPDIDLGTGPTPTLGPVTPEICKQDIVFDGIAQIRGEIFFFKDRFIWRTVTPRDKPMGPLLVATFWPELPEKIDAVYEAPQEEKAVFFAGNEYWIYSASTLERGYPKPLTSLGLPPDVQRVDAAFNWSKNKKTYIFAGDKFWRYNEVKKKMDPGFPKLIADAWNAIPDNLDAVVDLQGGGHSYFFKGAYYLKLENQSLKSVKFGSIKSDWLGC

Caco-2 [4] = assay: MTT antiproliferative evaluation on Caco-2 cells; assay type: cell-based; conditions: Homo sapiens, Caco-2, 72 h, read-out: IC50 Caco-2
tumor growth = conditions: mouse models; cited from earlier work

Molecule: COc1cccc2c1C(=O)c1c(O)c3c(c(O)c1C2=O)C[C@@](O)(C(=O)CO)C[C@@H]3O[C@H]1C[C@H](N)[C@H](O)[C@H](C)O1 [DOX, doxorubicin]
- total % of the apoptotic cell population, MDA-MBA 231 (MDA-MB 231 [1]): 19.9 ± 1.6%
- total % of the apoptotic cell population, MDA-MBA 231 (MDA-MB 231 [1]; listed as doxorubicin): < 32%
- total % of the apoptotic cell population, Caco-2 (Caco-2 [2]): 31.7 ± 2.7%
- total % of the apoptotic cell population, Caco-2 (Caco-2 [2]; listed as doxorubicin): < 32%
- IC50 (MDA-MB 231 [3]): 10.7 ± 0.3 nM

Molecule: COc1ccc(S(=O)(=O)N(CC(=O)NO)CC(C)C)cc1 [NNGH, N-isobutyl-N-(4-methoxyphenylsulfonyl)glycyl hydroxamic acid]
- IC50 (MMP-10): 101 nM
- IC50 (MMP-7): 240 nM
- IC50 (MMP-9): 73 nM
- IC50 (MMP-13): 360 nM
- IC50 (MMP-2): 77 nM

B1: andecaliximab (antibody, chains of the INN, looked up, V domains shown)
VH: QVQLQESGPGLVKPSETLSLTCTVSGFSLLSYGVHWVRQPPGKGLEWLGVIWTGGTTNYNSALMSRFTISKDDSKNTVYLKMNSLKTEDTAIYYCARYYYGMDYWGQGTLVTVSS
VL: DIQMTQSPSSLSASVGDRVTITCKASQDVRNTVAWYQQKPGKAPKLLIYSSSYRNTGVPDRFSGSGSGTDFTLTISSLQAEDVAVYYCQQHYITPYTFGGGTKVEIK
- tumor growth and metastases incidence (tumor growth): reduced the tumor growth and metastases incidence

Next, values leading:

- IC50 (Caco-2 [4]): 52.8 ± 3.8 nM
- IC50 (MDA-MB 231 [3]): 70.9 ± 3.7 nM
Molecule: O=C(NNc1nc(O)nc(O)n1)c1ccc(Nc2nc(Nc3ccc(C(=O)NNc4nc(O)nc(O)n4)cc3)nc(Nc3ccc(C(=O)NNc4nc(O)nc(O)n4)cc3)n2)cc1 [compound 12, 4,4′,4′′-((1,3,5-Triazine-2,4,6-triyl)tris(azanediyl))tris(N′-(4,6-dihydroxy-1,3,5-triazin-2-yl)benzohydrazide)]

- IC50 (Caco-2 [4]): 38.4 ± 1.6 nM
- IC50 (MDA-MB 231 [3]): 94.4 ± 10.6 nM
Molecule: O=C(NO)c1ccc(Nc2nc(Nc3ccc(C(=O)NO)cc3)nc(Nc3ccc(C(=O)NO)cc3)n2)cc1 [compound 13, 4,4′,4′′-((1,3,5-Triazine-2,4,6-triyl)tris(azanediyl))tris(N-hydroxybenzamide)]
